Measurements published in patent EP2611798B1, “PYRIDAZINONES, METHOD OF MAKING, AND METHOD OF USE THEREOF” (Gilead Connecticut, Inc., priority 2010, dated 2012).

target: T1, full length human wildtype Btk (Homo sapiens, UniProt Q06187); test: Biochemical Btk Kinase Assay (Example 901); details: time-resolved fluorescence, final ATP concentration 40 µM; alternatively Lanthascreen assay, ATP 25 uM
T1 construct: V5 (C); 6xHis (C); made in house; host or cells: Sf9 insect cells (baculovirus, pFastBac)
T1 sequence (Q06187 whole entry): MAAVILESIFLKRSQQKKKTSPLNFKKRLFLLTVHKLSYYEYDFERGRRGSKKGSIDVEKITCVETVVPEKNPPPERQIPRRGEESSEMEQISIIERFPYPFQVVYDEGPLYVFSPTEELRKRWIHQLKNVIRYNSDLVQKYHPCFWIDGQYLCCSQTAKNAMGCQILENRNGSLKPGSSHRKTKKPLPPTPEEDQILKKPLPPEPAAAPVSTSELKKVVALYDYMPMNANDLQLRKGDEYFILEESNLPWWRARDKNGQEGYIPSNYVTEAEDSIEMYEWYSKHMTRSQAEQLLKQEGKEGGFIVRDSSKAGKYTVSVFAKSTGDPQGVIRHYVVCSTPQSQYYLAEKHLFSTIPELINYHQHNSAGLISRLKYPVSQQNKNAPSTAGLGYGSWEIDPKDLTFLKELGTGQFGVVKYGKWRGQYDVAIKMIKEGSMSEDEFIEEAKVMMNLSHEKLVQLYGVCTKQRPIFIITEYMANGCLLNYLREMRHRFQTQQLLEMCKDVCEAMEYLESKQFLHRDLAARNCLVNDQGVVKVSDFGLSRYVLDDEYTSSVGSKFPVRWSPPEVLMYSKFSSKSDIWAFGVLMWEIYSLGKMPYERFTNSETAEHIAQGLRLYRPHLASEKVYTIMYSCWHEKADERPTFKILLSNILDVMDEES
Experimental: Formula I compounds were tested by a standard biochemical Btk Kinase Assay (Example 901). A generalized procedure for a standard biochemical Btk Kinase Assay that can be used to test Formula I compounds is as follows. […] Btk enzyme is prepared as follows: full length human wildtype Btk (accession number NM-000061) with a C-terminal V5 and 6x His tag was subcloned into pFastBac vector for making baculovirus carrying this epitope-tagged Btk. Generation of baculovirus is done based on Invitrogen's instructions detailed in its published protocol "Bac-to-Bac Baculovirus Expression Systems" (Cat. Nos. 10359-016 and 10608-016). Passage 3 virus is used to infect Sf9 cells to overexpress the recombinant Btk protein. The Btk protein is then purified to homogeneity using Ni-NTA column. The purity of the final protein preparation is greater than 95% based on the sensitive Sypro-Ruby staining. A solution of 200 µM ATP is prepared in water and adjusted to pH7.4 with 1N NaOH. A quantity of 1.25 µL of compounds in 5%DMSO is transferred to a 96-well ½ area Costar polystyrene plate. Compounds are tested singly and with an 11-point dose-responsive curve (starting concentration is 10 µM; 1:2 dilution). A quantity of 18.75 µL of master mix minus enzyme (as a negative control) and master mix plus enzyme is transferred to appropriate wells in 96-well ½ area costar polystyrene plate. 5 µL of 200 µM ATP is added to that mixture in the 96-well ½ area Costar polystyrene plate for final ATP concentration of 40 µM. The reaction is allowed to incubate for 1 hour at room temperature. The reaction is stopped with Perkin Elmer 1X detection buffer containing 30 mM EDTA, 20 nM SA-APC, and 1 nM PT66 Ab. The plate is read using time-resolved fluorescence with a Perkin Elmer Envision using excitation filter 330 nm, emission filter 665 nm, and 2nd emission filter 615 nm. IC50 values are subsequently calculated. Alternatively, the Lanthascreen assay can be used to evaluate Btk activity through quantification of its phosphorylated peptide product. The FRET (Fluorescence Resonance Energy Transfer) that occurs between the fluorescein on the peptide product and the terbium on the detection antibody decreases with the addition of inhibitors of Btk that reduce the phosphorylation of the peptide. […] After incubation for 60 minutes at room temperature, the reaction is stopped by the addition of a final concentration of 2 nM Tb-PY20 detection antibody in 60 mM EDTA for 30 minutes at room temperature. Detection is determined on a Perkin Elmer Envision with 340 nm excitation and emission at 495 nm and 520 nm. Exemplary Btk inhibition IC50 values are in Tables and 2.

Compound | IC50
Cc1cc(Nc2cc(-c3ccc(F)c(N4Cc5cc(C(C)(C)C)sc5C4=O)n3)n[nH]c2=O)nn1C [Compound 117, 6-(6-{2-tert-butyl-b-oxo-4H,5H,6H-thieno[2,3-c]pyrrol-5-yl}-5-fluoropyridin-2-yl)-4-[(1,5-dimethyl-1H-pyrazol-3-yl)amino]-2,3-dihydropyridazin-3-one] | 45 nM
Cc1c(-c2cc(Nc3cc(CN4CC(F)(F)C4)n(C)n3)c(=O)[nH]n2)cccc1N1Cc2cc(C(C)(C)C)sc2C1=O [Compound 119, 6-(3-{2-tert-butyl-6-oxo-4H,5H,6H-thieno[2,3-c]pyrrol-5-yl}-2-methylphenyl)-4-({5-[(3,3-difluoroazetidin-1-yl)methyl]-1-methyl-1H-pyrazol-3-yl}amino)-2,3-dihydropyridazin-3-one] | 5 nM
Cc1c(-c2cc(Nc3cc(C)n(C)n3)c(=O)[nH]n2)cccc1N1Cc2cc(C(C)(C)C)sc2C1=O [Compound 112, 6-(3-{2-tert-butyl-6-oxo-4H,5H,6H-thieno[2,3-c]pyrrol-5-yl}-2-methylphenyl)-4-[(1,5-dimethyl-1 H-pyrazol-3-yl)amino]-2,3-dihydropyridazin-3-one] | 3 nM
Cc1cc(Nc2cc(-c3cccc(N4Cc5cc(C(C)(C)C)sc5C4=O)c3C)n[nH]c2=O)no1 [Compound 115, 6-(3-{2-tert-butyl-6-oxo-4H,5H,6H-thieno[2,3-c]pyrrol-5-yl}-2-methylphenyl)-4-[(5-methyl-1,2-oxazol-3-yl)amino]-2,3-dihydropyridazin-3-one] | 18 nM
Cc1c(-c2cc(Nc3nc4c(s3)CNCC4)c(=O)[nH]n2)cccc1N1Cc2cc(C(C)(C)C)sc2C1=O [Compound 118, 6-(3-{2-tert-butyl-6-oxo-4H,5H,6H-thieno[2,3-c]pyrrol-5-yl}-2-methylphenyl)-4-{4H,5H,6H,7H-pyrido[4,3-d][1,3]thiazol-2-ylamino}-2,3-dihydropyridazin-3-one] | 65 nM
CN1CCn2nc(Nc3cc(-c4cccc(N5Cc6cc(C(C)(C)C)sc6C5=O)c4CO)nn(C)c3=O)cc2C1 [Compound 120, 6-(3-{2-tert-butyl-6-oxo-4H,5H,6H-thieno[2,3-c]pyrrol-5-yl}-2-(hydroxymethyl)phenyl)-2-methyl-4-({5-methyl-4H,5H,6H,7H-pyrazolo[1,5-a]pyrazin-2-yl}amino)-2,3-dihydropyridazin-3-one] | 55 nM

test system: production of CD69 by B lymphocytes in human whole blood; test: CD69 Whole Blood Assay (Example 907); format: cell-based; details: Lymphocyte; human whole blood activated with goat F(ab')2 anti-human IgM, 20 hours; percent CD69 positive cells that are also CD20 positive
Excerpt: A CD69 Whole Blood Assay can be conducted on Formula I compounds to determine the ability of compounds to inhibit the production of CD69 by B lymphocytes in human whole blood activated by crosslinking surface IgM with goat F(ab')2 anti-human IgM (Example 907).
Human blood is obtained from healthy volunteers, with the following restrictions: 1 week drug-free, non-smokers. Blood (approximately 20 mls to test 8 compounds) is collected by venipuncture into Vacutainer® (Becton, Dickinson and Co.) tubes with sodium heparin.
Solutions of Formula I compounds at 10 mM in DMSO are diluted 1:10 in 100% DMSO, then are diluted by three-fold serial dilutions in 100% DMSO for a ten point dose-response curve. The compounds are further diluted 1:10 in PBS and then an aliquot of 5.5 µl of each compound is added in duplicate to a 2 ml 96-well plate; 5.5 µl of 10% DMSO in PBS is added as control and no-stimulus wells. Human whole blood - HWB (100 µl) is added to each well. After mixing the plates are incubated at 37 °C, 5% CO2, 100% humidity for 30 minutes. Goat F(ab')2 anti-human IgM (10 µl of a 500 µg/ml solution, 50 µg/ml final) is added to each well (except the no-stimulus wells) with mixing and the plates are incubated for an additional 20 hours. At the end of the 20 hour incubation, samples are incubated with fluorescent labeled antibodies for 30 minutes, at 37 °C, 5% CO2, 100% humidity. Include induced control, unstained and single stains for compensation adjustments and initial voltage settings. Samples are then lysed with PharM Lyse™ (BD Biosciences Pharmingen) according to the manufacturer's instructions. Samples are then transferred to a 96 well plate suitable to be run on the BD Biosciences HTS 96 well system on the LSRII machine. Data acquired and Mean Fluorescence Intensity values were obtained using BD Biosciences DIVA Software. Results are initially analyzed by FACS analysis software (Flow Jo). […] The IC50 values are calculated by Prism version 5, using a nonlinear regression curve fit.

Compound | IC50
CC(=O)N1CCn2nc(Nc3cc(-c4cccc(N5Cc6cc(C(C)(C)C)sc6C5=O)c4CCO)nn(C)c3=O)cc2C1 [Compound 128, 6-(3-{2-tert-butyl-6-oxo-4H,5H,6H-thieno[2,3-c]pyrrol-5-yl}-2-(2-hydroxyethyl)phenyl)-4-({5-acetyl-4H,5H,6H,7H-pyrazolo[1,5-a]pyrazin-2-yl}amino)-2-methyl-2,3-dihydropyridazin-3-one] | 568 nM

test system: CD86 surface expression; test: CD86 Inhibition Assay (Example 905), inhibition of B cell activity in total mouse splenocytes; format: cell-based, Balb/c mice; details: Splenocyte; total mouse splenocytes stimulated with 15 µg/ml IgM for 24 hr; gated on CD19+/7AAD- population
Experimental: A CD86 Inhibition assay can be conducted on Formula I compounds for the inhibition of B cell activity using total mouse splenocytes purified from spleens of 8-16 week old Balb/c mice (Example 905).
A generalized procedure for a standard assay for the inhibition of B cell activity that can be used to test Formula I compounds is as follows. Total mouse splenocytes are purified from spleens of 8-16 week old Balb/c mice by red blood cell lysis (BD Pharmingen #555899). Testing compounds are diluted to 0.5% DMSO and incubated with 1.25 x 10^6 splenocytes in a final volume of 200 µl in flat clear bottom plates (Falcon 353072) for 60 min at 37°C. Cells are then stimulated with the addition of 15 µg/ml IgM (Jackson ImmunoResearch 115-006-020), and incubated for 24 hr at 37°C, 5% CO2. Following the 24 hr incubation, cells are transferred to conical bottom clear 96-well plates and pelleted by centrifugation at 1200 x g x 5 min. Cells are preblocked by CD16/CD32 (BD Pharmingen #553142), followed by triple staining with CD19-FITC (BD Pharmingen #553785), CD86-PE (BD Pharmingen #553692), and 7AAD (BD Pharmingen #51-68981E). Cells are sorted on a BD FACSCalibur and gated on the CD19^+/7AAD^- population. The levels of CD86 surface expression on the gated population is measured versus test compound concentration. Exemplary results are in Table 3.

Compound | EC50
Cn1nc(-c2cccc(N3Cc4cc(C(C)(C)C)sc4C3=O)c2CO)cc(Nc2cc(C3CC3)[nH]n2)c1=O [Compound 127, 6-(3-{2-tert-butyl-6-oxo-4H,5H,6H-thieno[2,3-c]pyrrol-5-yl}-2-(hydroxymethyl)phenyl)-4-[(5-cyclopropyl-1H-pyrazol-3-yl)amino]-2-methyl-2,3-dihydropyridazin-3-one] | 178 nM
Cn1nc(-c2cccc(N3Cc4cc(C(C)(C)C)sc4C3=O)c2CO)cc(Nc2ccncn2)c1=O [Compound 136, 6-(3-{2-tert-butyl-6-oxo-4H,5H,6H-thieno[2,3-c]pyrrol-5-yl}-2-(hydroxymethyl)phenyl)-2-methyl-4-(pyrimidin-4-ylamino)-2,3-dihydropyridazin-3-one] | 704 nM
Cc1c(-c2cc(Nc3cc4n(n3)CCN(C)C4)c(=O)n(C)n2)cc(F)cc1N1Cc2cc(C(C)(C)C)sc2C1=O [Compound 124, 6-(3-{2-tert-butyl-6-oxo-4H,5H,6H-thieno[2,3-c]pyrrol-5-yl}-5-fluoro-2-methylphenyl)-2-methyl-4-({5-methyl-4H,5H,6H,7H-pyrazolo[1,5-a]pyrazin-2-yl}amino)-2,3-dihydropyridazin-3-one] | 1100 nM
Cc1c(-c2cc(Nc3cc4n(n3)CCN(C)C4)c(=O)[nH]n2)cccc1N1Cc2cc(C(C)(C)C)sc2C1=O [Compound 101, 6-(3-{2-tert-butyl-6-oxo-4H,5H,6H-thieno[2,3-c]pyrrol-5-yl}-2-methylphenyl)-4-({5-methyl-4H,5H,6H,7H-pyrazolo[1,5-a]pyrazin-2-yl}amino)-2,3-dihydropyridazin-3-one] | 192 nM
CC(=O)N1CCn2nc(Nc3cc(-c4cccc(N5Cc6cc(C(C)(C)C)sc6C5=O)c4CO)nn(C)c3=O)cc2C1 [Compound 132, 6-(3-{2-tert-butyl-6-oxo-4H,5H,6H-thieno[2,3-c]pyrrol-5-yl}-2-(hydroxymethyl)phenyl)-4-({5-acetyl-4H,5H,6H,7H-pyrazolo[1,5-a]pyrazin-2-yl}amino)-2-methyl-2,3-dihydropyridazin-3-one] | 113 nM
Cc1c(-c2cc(Nc3cc(CN4CC(F)(F)C4)n(C)n3)c(=O)[nH]n2)cccc1N1Cc2cc(C(C)(C)C)sc2C1=O [Compound 119, 6-(3-{2-tert-butyl-6-oxo-4H,5H,6H-thieno[2,3-c]pyrrol-5-yl}-2-methylphenyl)-4-({5-[(3,3-difluoroazetidin-1-yl)methyl]-1-methyl-1H-pyrazol-3-yl}amino)-2,3-dihydropyridazin-3-one] | 352 nM
Cn1nc(-c2cccc(N3Cc4cc(C(C)(C)C)sc4C3=O)c2CO)cc(Nc2cc3n(n2)CCCOC3)c1=O [Compound 134, 6-(3-{2-tert-butyl-6-oxo-4H,5H,6H-thieno[2,3-c]pyrrol-5-yl}-2-(hydroxymethyl)phenyl)-2-methyl-4-{4H,6H,7H,8H-pyrazolo[3,2-c][1,4]oxazepin-2-ylamino}-2,3-dihydropyridazin-3-one] | 206 nM
CN1CCn2nc(Nc3cc(-c4cccc(N5Cc6cc(C(C)(C)C)sc6C5=O)c4CO)nn(C)c3=O)cc2C1 [Compound 120, 6-(3-{2-tert-butyl-6-oxo-4H,5H,6H-thieno[2,3-c]pyrrol-5-yl}-2-(hydroxymethyl)phenyl)-2-methyl-4-({5-methyl-4H,5H,6H,7H-pyrazolo[1,5-a]pyrazin-2-yl}amino)-2,3-dihydropyridazin-3-one] | 189 nM
Cc1cc(Nc2cc(-c3cccc(N4Cc5cc(C(C)(C)C)sc5C4=O)c3CO)nn(C)c2=O)nn1C [Compound 131, 6-(3-{2-tert-butyl-6-oxo-4H,5H,6H-thieno[2,3-c]pyrrol-5-yl}-2-(hydroxymethyl)phenyl)-4-[(1,5-dimethyl-1H-pyrazol-3-yl)amino]-2-methyl-2,3-dihydropyridazin-3-one] | 139 nM
